Source: the NIST ThermoML archive (doi:10.1016/j.jct.2007.03.004)
± gives the expanded uncertainty stated by the source.

Assays:
[1] = refractive index (Na D-line) (dimensionless); conditions: 293.15 K; 101.33 kPa; Liquid; Standard Abbe refractometry
[2] = Liquid; for mass density: 293.15 K, 101.33 kPa; for Normal boiling temperature: Distillation

refractive index [1]	mass density [2]	Normal boiling temperature [2]	Compound
1.42014 ± 0.0007	1040.22 ± 0.5 kg/m3	217.7 ± 0.2 °C	CCOC(=O)CCC(=O)OCC [diethyl butanedioate]
1.42414 ± 0.00078	1022.04 ± 1.2 kg/m3	236.5 ± 0.2 °C	CCOC(=O)CCCC(=O)OCC [diethyl glutarate]
1.42725 ± 0.0007	1007.63 ± 0.41 kg/m3	245.2 ± 0.2 °C	CCOC(=O)CCCCC(=O)OCC [diethyl hexanedioate]
1.3808 ± 0.0007	988.04 ± 0.41 kg/m3	141.4 ± 0.2 °C	CCC(=O)O [propanoic acid]
